Assays:
[1] = target: T1, BRD4 bromo domain 1 [BRD4(1)] (Homo sapiens, UniProt O60885); test: BRD4/acetylated peptide H4 binding assay (TR-FRET), BRD4 bromo domain 1; details: inhibition of BRD4(1)/Ac-H4 peptide interaction
T1 construct: N-terminally His6-tagged BRD4(1) (amino acids 67-152); made in house; host or cells: E. coli
Description: (§1) Protein-Protein Interaction Assay: BRD4/Acetylated Peptide H4 Binding Assay
To assess the BRD4(1) binding strength of the substances described in this application, the ability thereof to inhibit the interaction between BRD4(1) and acetylated histone H4 in a dose-dependent manner was quantified.
(§2) For this purpose, a time-resolved fluorescence resonance energy transfer (TR-FRET) assay was used, which measures the binding between N-terminally His6-tagged BRD4(1) (amino acids 67-152) and a synthetic acetylated histone H4 (Ac-H4) peptide with sequence GRGK(Ac)GGK(Ac)GLGK(Ac)GGAK(Ac)RHGSGSK-biotin. The recombinant BRD4(1) protein produced in-house according to Filippakopoulos et al., Nature, 2010, 468:1119-1123 and Cell, 2012, 149:214-231, was expressed in E. coli and purified by means of (Ni-NTA) affinity and (Sephadex G-75) size exclusion chromatography. The Ac-H4 peptide can be purchased, for example, from Biosyntan (Berlin, Germany).
(§3) In the assay, typically 11 different concentrations of each substance (0.1 nM, 0.33 nM, 1.1 nM, 3.8 nM, 13 nM, 44 nM, 0.15 μM, 0.51 μM, 1.7 μM, 5.9 μM and 20 μM) were analysed as duplicates on the same microtitre plate. For this purpose, 100-fold concentrated solutions in DMSO were prepared by serial dilutions (1:3.4) of a 2 mM stock solution into a clear, 384-well microtitre plate (Greiner Bio-One, Frickenhausen, Germany). From this, 50 nl were transferred into a black test plate (Greiner Bio-One, Frickenhausen, Germany). The test was started by the addition of 2 μl of a 2.5-fold concentrated BRD4(1) solution (final concentration typically 10 nM in the 5 μl of reaction volume) in aqueous assay buffer [50 mM HEPES pH 7.5, 50 mM sodium chloride (NaCl), 0.25 mM CHAPS and 0.05% serum albumin (BSA)] to the substances in the test plate. This was followed by a 10-minute incubation step at 22° C. for the pre-equilibration of putative complexes between BRD4(1) and the substances.
(§4) The mixture was then incubated in the dark at 22° C. for one hour and then at 4° C. for at least 3 hours and for no longer than overnight. The formation of BRD4(1)/Ac-H4 complexes was determined by the measurement of the resonance energy transfer from the streptavidin-Eu cryptate to the anti-6His-XL665 antibody present in the reaction. For this purpose, the fluorescence emission was measured at 620 nm and 665 nm after excitation at 330-350 nm in a TR-FRET measuring instrument, for example a Rubystar or Pherastar (both from BMG Lab Technologies, Offenburg, Germany) or a Viewlux (Perkin-Elmer). The ratio of the emissions at 665 nm and at 622 nm was taken as an indicator of the amount of BRD4(1)/Ac-H4 complexes formed.
(§5) The data (ratios) obtained were normalized, with 0% inhibition corresponding to the mean from the measurements for a set of controls (typically 32 data points) in which all the reagents were present. In these, in place of test substances, 50 nl of DMSO (100%) were used. Inhibition of 100% corresponded to the mean from the measurements for a set of controls (typically 32 data points) in which all the reagents except BRD4(1) were present. The IC50 was determined by regression analysis based on a 4-parameter equation (minimum, maximum, IC50, Hill; Y=max+(min−max)/(1+(X/IC50)Hill)).

[2] = target: T2, BRD4 bromo domain 2 [BRD4(2)] (Homo sapiens, UniProt O60885); test: BRD4/acetylated peptide H4 binding assay (TR-FRET), BRD4 bromo domain 2; details: inhibition of BRD4(2)/Ac-H4 peptide interaction
T2 construct: N-terminally His6-tagged BRD4(2) (amino acids 357-445); made in house; host or cells: E. coli
Description: as §1
To assess the BRD4(2) binding strength of the substances described in this application, the ability thereof to inhibit the interaction between BRD4(2) and acetylated histone H4 in a dose-dependent manner was quantified.
as §2, with “BRD4(2)” for “BRD4(1)”, “357-445)” for “67-152)”, “SGRGK(Ac)GGK(Ac)GLGK(Ac)GGAK(Ac)RHRKVLRDNGSGSK-biotin.” for “GRGK(Ac)GGK(Ac)GLGK(Ac)GGAK(Ac)RHGSGSK-biotin.”
as §3, with “concentrated BRD4(2)” for “concentrated BRD4(1)”, “typically 100” for “typically 10”, “chloride (NaCl); 50 mM potassium fluoride (KF);” for “chloride (NaCl),”, “between BRD4(2)” for “between BRD4(1)”, “substances. Subsequently, 3 μl of a 1.67-fold concentrated solution (in assay buffer) consisting of Ac-H4 peptide (83.5 nM) and TR-FRET detection reagents [83.5 nM anti-6His-XL665 (Cisbio Bioassays, Codolet, France) and 12.52 nM streptavidin-Eu), (Perkin Elmer, #W1024)] in assay buffer were added.” for “substances.”
as §4, with “BRD4(2)/Ac-H4” for “BRD4(1)/Ac-H4”, “chelate” for “cryptate”
as §5, with “BRD4(2)” for “BRD4(1)”

Row | Compound | IC50 [1] | IC50 [2]
1 | Cc1cccc(N2c3nc(Nc4cccc(S(=O)(=O)N5CCOCC5)c4)ccc3N(C)C(=O)C2C)c1 (stereo not drawn) [Example 64, 1,3-dimethyl-4-(3-methylphenyl)-6-{[3-(morpholin-4-ylsulphonyl)phenyl]-amino}-3,4-dihydropyrido[2,3-b]pyrazin-2(1H)-one] | 271 nM | 197 nM
2 | Cc1cccc(N2c3nc(Nc4cccc(S(=O)(=O)NC5CCN(C)CC5)c4)ccc3N(C)C(=O)C2C)c1 (stereo not drawn) [Example 65, 3-{[1,3-dimethyl-4-(3-methylphenyl)-2-oxo-1,2,3,4-tetrahydropyrido-[2,3-b]pyrazin-6-yl]amino}-N-(1-methylpiperidin-4-yl)benzenesulphonamide] | 386 nM | 589 nM
3 | CC1C(=O)N(C)c2ccc(Nc3cccc(S(=O)(=O)N4CCN(C)CC4)c3)nc2N1c1ccc(N2CCN(C(=O)OC(C)(C)C)CC2)cc1 (stereo not drawn) [Example 67, tert-butyl 4-{4-[1,3-dimethyl-6-({3-[(4-methylpiperazin-1-yl)sulphonyl]phenl}-amino)-2-oxo-2,3-dihydropyrido[2,3-b]pyrazin-4(1H)-yl]phenyl}piperazine-1-carboxylate] | 4380 nM | 5190 nM
4 | C[C@@H]1C(=O)N(C)c2ccc(Nc3cccc(S(=O)(=O)N(C)C)c3)cc2N1Cc1ccccc1 [Example 69, 3-{[(3R)-4-benzyl-1,3-dimethyl-2-oxo-1,2,3,4-tetrahydroquinoxalin-6-yl]amino}-N,N-dimethyl-benzenesulphonamide] | 496 nM | 63 nM
5 | CC(C)N1CCN(C(=O)c2cccc(Nc3ccc4c(n3)N(Cc3ccccc3)[C@H](C)C(=O)N4C)c2)CC1 [Example 76, (3R)-4-benzyl-6-({3-[(4-isopropylpiperazin-1-yl)carbonyl]phenyl}-amino)-1,3-dimethyl-3,4-dihydropyrido[2,3-b]pyrazin-2(1H)-one] | 143 nM | 108 nM
6 | C[C@@H]1C(=O)N(C)c2ccc(Nc3cccc(C(=O)N4CCN(C)CC4)c3)nc2N1C1CCN(C(=O)OC(C)(C)C)CC1 [Example 78, tert-butyl 4-[(3R)-1,3-dimethyl-6-({3-[(4-methylpiperazin-1-yl)carbonyl]phenyl}-amino)-2-oxo-2,3-dihydropyrido[2,3-b]pyrazin-4(1H)-yl]piperidine-1-carboxylate] | 151 nM | 157 nM
7 | C[C@@H]1C(=O)N(C)c2ccc(Nc3cccc(C(=O)NC4CCC(NC5CCN(C)CC5)CC4)c3)nc2N1C1CCOCC1 (stereo partly drawn) [Example 80, 3-{[(3R)-1,3-dimethyl-2-oxo-4-(tetrahydro-2H-pyran-4-yl)-1,2,3,4-tetrahydropyrido[2,3-b]pyrazin-6-yl]amino}-N-{4-[(1-methylpiperidin-4-yl)amino]cyclohexyl} benzamide] | 196 nM | 247 nM
8 | COc1ccc(Nc2ccc3c(n2)N(C2CCOCC2)[C@H](C)C(=O)N3C)cc1C(=O)NC1CCN(C)CC1 [Example 81, 5-{[(3R)-1,3-dimethyl-2-oxo-4-(tetrahydro-2H-pyran-4-yl)-1,2,3,4-tetrahydropyrido[2,3-b]pyrazin-6-yl]amino}-2-methoxy-N-(1-methylpiperidin-4-yl)benzamide] | 210 nM | 227 nM

The remaining lines, values ahead:

Row | IC50 [1] | IC50 [2] | Compound
9 | 1110 nM | 308 nM | C[C@@H]1C(=O)N(C)c2ccc(Nc3cccc(S(=O)(=O)N4CCN(CC(F)(F)F)CC4)c3)nc2N1C1CCN(C(=O)OC(C)(C)C)CC1 [Example 66, tert-butyl 4-[(3R)-1,3-dimethyl-2-oxo-6-[(3-{[4-(2,2,2-trifIuoroethyl)-piperazin-1-yl]sulphonyl}-phenl)amino]-2,3-dihydropyrido[2,3-b]pyrazin-4(1H)-yl]piperidine-1-carboxylate]
10 | 433 nM | 76 nM | C[C@@H]1C(=O)N(C)c2ccc(Nc3cccc(S(=O)(=O)N(C)C)c3)cc2N1C1CCN(C(=O)OC(C)(C)C)CC1 [Example 68, tert-butyl 4-[(2R)-7-{[3-(dimethylsulphamoyl)-phenyl]amino}-2,4-dimethyl-3-oxo-3,4-dihydroquinoxalin-1(2H)-yl]piperidine-1-carboxylate]
11 | 749 nM | 384 nM | C[C@@H]1C(=O)N(C)c2ccc(N(C)c3cccc(S(=O)(=O)N(C)C)c3)cc2N1C1CCN(C(=O)OC(C)(C)C)CC1 [Example 70, tert-butyl 4-[(2R)-7-{[3-(dimethylsulphamoyl)-phenyl](methyl)amino}-2,4-dimethyl-3-oxo-3,4-dihydroquinoxalin-1(2H)-yl]piperidine-1-carboxylate]
12 | 232 nM | 315 nM | C[C@@H]1C(=O)N(C)c2ccc(Nc3cccc(S(=O)(=O)N4CCN(C)CC4)c3)cc2N1C1CCOCC1 [Example 71, (3R)-1,3-dimethyl-6-({3-[(4-methylpiperazin-1-yl)sulphonyl]phenl}-amino)-4-(tetrahydro-2H-pyran-4-yl)-3,4-dihydroquinoxalin-2(1H)-one]
